The text below walks through data of patent publication US20080070868A1, “Novel Thiazole Inhibitors of Fructose 1,6-bisphosphatase” (Metabasis Therapeutics, Inc., priority 2004, published 2008).

One test addresses T1, human liver FBPase (Homo sapiens, UniProt P09467).
T1 construct: made in house; host or cells: E. coli BL21
T1 sequence (P09467 2-338 limits assumed): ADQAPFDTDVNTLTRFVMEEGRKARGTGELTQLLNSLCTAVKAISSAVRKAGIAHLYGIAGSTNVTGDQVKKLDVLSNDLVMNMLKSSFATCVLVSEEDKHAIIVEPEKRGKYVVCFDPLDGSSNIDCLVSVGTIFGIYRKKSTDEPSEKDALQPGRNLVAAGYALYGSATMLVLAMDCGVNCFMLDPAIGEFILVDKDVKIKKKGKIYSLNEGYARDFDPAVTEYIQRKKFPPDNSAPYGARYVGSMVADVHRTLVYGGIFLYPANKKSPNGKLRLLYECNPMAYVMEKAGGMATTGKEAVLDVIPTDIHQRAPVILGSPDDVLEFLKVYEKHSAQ
As to the kind of experiment: Inhibition of human liver FBPase. The test is classed as biochemical. The settings on record: N-acetyl-1.1 relative to 1.1. As for the experimental part: E. coli strain BL21 transformed with a human liver FBPase-encoding plasmid was obtained from Dr. M. R. El-Maghrabi at the State University of New York at Stony Brook. […] Enzymatic activity was measured spectrophotometrically in reactions that coupled the formation of product (fructose 6-phosphate) to the reduction of dimethylthiazoldiphenyltetrazolium bromide (MTT) via NADP^+ and phenazine methosulfate (PMS), using phosphoglucose isomerase and glucose 6-phosphate dehydrogenase as the coupling enzymes. Reaction mixtures (200 μl) were made up in 96-well microtitre plates, and consisted of 50 mM Tris-HCl, pH 7.4, 100 mM KCl, 5 mM EGTA, 2 mM MgCl2, 0.2 mM NADP, 1 mg/ml BSA, 1 mM MTT, 0.6 mM PMS, 1 unit/ml phosphoglucose isomerase, 2 units/ml glucose 6-phosphate dehydrogenase, and 0.150 mM substrate (fructose 1,6-bisphosphate). Inhibitor concentrations were varied from 0.01 μM to 10 μM. Reactions were started by the addition of 0.002 units of pure hlFBPase, and were monitored for 7 min. at 590 nm in a Molecular Devices Plate Reader (37° C.).
Consider `CC(=O)Nc1nc(-c2ccc(P(=O)(O)O)o2)c(C(=O)C(C)(C)C)s1` [N-acetyl-1.1, reference compound], for which the “rightward shift in potency in the FBPase assay on N-acetylation” value is listed as 74.5 fold.

Staying with this test, now noted: purified recombinant human liver FBPase, 0.150 mM fructose 1,6-bisphosphate, 37° C.; read-out: IC50 (hlFBPase).
On to `CC(=O)Nc1nc(-c2ccc(P(=O)(O)O)o2)c(C(=O)C(C)(C)C)s1` [N-acetyl-1.1, reference compound], for which the 50% inhibitory concentration (IC50) worked out at 2310 nM.
On the same count and under the same terms, next, `Nc1nc(-c2ccc(P(=O)(O)O)o2)c(C(=O)c2cccc(F)c2)s1` [Compound 1.8, [5-(2-amino-5-(3-fluorobenzoyl)thiazol-4-yl)furan-2-yl]-phosphonic acid]: 37 nM.
On to `COc1ccccc1C(=O)c1sc(N)nc1-c1ccc(P(=O)(O)O)o1` [Compound 1.14, [5-(2-amino-5-(2-methoxybenzoyl)thiazol-4-yl)furan-2-yl]-phosphonic acid], for which the half-inhibitory concentration (IC50) came to 118 nM.
As to `CCC(C)C(=O)c1sc(N)nc1-c1ccc(P(=O)(O)O)o1` (stereo not shown) [Compound 1.33, [5-(2-amino-5-(2-methylbutyryl)thiazol-4-yl)furan-2-yl]-phosphonic acid], the IC50 amounted to 11 nM.
On the same count and under the same terms, then `Nc1nc(-c2ccc(P(=O)(O)O)o2)c(C(=O)c2cccs2)s1` [Compound 1.7, [5-(2-amino-5-(2-thienylcarbonyl)thiazol-4-yl)furan-2-yl]-phosphonic acid], with 41 nM; and `Nc1nc(-c2ccc(P(=O)(O)O)o2)c(C(=O)c2ccc(F)cc2)s1` [Compound 1.22, [5-(2-amino-5-(4-fluorobenzoyl)thiazol-4-yl)furan-2-yl]-phosphonic acid], with 33 nM; and `Nc1nc(-c2ccc(P(=O)(O)O)o2)c(C(=O)c2ccc(N3CCCCC3)cc2)s1` [Compound 1.31, [5-(2-amino-5-(4-piperidinylbenzoyl)thiazol-4-yl)furan-2-yl]-phosphonic acid], with 73 nM.
Same read-out and setting: next, `Nc1nc(-c2ccc(P(=O)(O)O)o2)c(C(=O)C2CCCCC2)s1` [Compound 1.6, [5-(2-amino-5-cyclohexylcarbonyl-thiazol-4-yl)furan-2-yl]-phosphonic acid]: 40 nM; `Nc1nc(-c2ccc(P(=O)(O)O)o2)c(C(=O)c2ccc3c(c2)OCO3)s1` [Compound 1.19, [5-(2-amino-5-(3,4-methylenedioxybenzoyl)thiazol-4-yl)-furan-2-yl]phosphonic acid]: 53 nM; `Nc1nc(-c2ccc(P(=O)(O)O)o2)c(C(=O)c2ccccc2C(F)(F)F)s1` [Compound 1.27, [5-(2-amino-5-(2-trifluoromethylbenzoyl)thiazol-4-yl)-furan-2-yl]phosphonic acid]: 111 nM.
Same read-out and setting: next, `Cc1ccc(C(=O)c2sc(N)nc2-c2ccc(P(=O)(O)O)o2)cc1` [Compound 1.10, [5-(2-amino-5-(4-methylbenzoyl)thiazol-4-yl)furan-2-yl]-phosphonic acid]: 48 nM.
In the case of `COc1ccc(C(=O)c2sc(N)nc2-c2ccc(P(=O)(O)O)o2)cc1` [Compound 1.16, [5-(2-amino-5-(4-methoxybenzoyl)thiazol-4-yl)furan-2-yl]-phosphonic acid], the IC50 was found to be 61 nM.
Still for that read-out and setting: next, `Nc1nc(-c2ccc(P(=O)(O)O)o2)c(C(=O)c2cccc(C(F)(F)F)c2)s1` [Compound 1.26, [5-(2-amino-5-(3-trifluoromethylbenzoyl)thiazol-4-yl)-furan-2-yl]phosphonic acid]: 119 nM; `Cc1cccc(C(=O)c2sc(N)nc2-c2ccc(P(=O)(O)O)o2)c1` [Compound 1.11, [5-(2-amino-5-(3-methylbenzoyl)thiazol-4-yl)furan-2-yl]-phosphonic acid]: 36 nM.
Still for that read-out and setting: then `COc1ccc(C(=O)c2sc(N)nc2-c2ccc(P(=O)(O)O)o2)cc1OC` [Compound 1.17, [5-(2-amino-5-(3,4-dimethoxybenzoyl)thiazol-4-yl)furan-2-yl]-phosphonic acid], with 94 nM; and `Nc1nc(-c2ccc(P(=O)(O)O)o2)c(C(=O)c2ccc(C(F)(F)F)cc2)s1` [Compound 1.24, [5-(2-amino-5-(4-trifluoromethylbenzoyl)thiazol-4-yl)-furan-2-yl]phosphonic acid], with 99 nM.
For the molecule `Nc1nc(-c2ccc(P(=O)(O)O)o2)c(C(=O)c2ccc(N3CCOCC3)c(Cl)c2)s1` [Compound 1.25, [5-(2-amino-5-(3-chloro-4-(1-morpholinyl)benzoyl)-thiazol-4-yl)furan-2-yl]phosphonic acid], the IC50 was 95 nM.
The same measure, in the same setting: next, `COc1cccc(C(=O)c2sc(N)nc2-c2ccc(P(=O)(O)O)o2)c1` [Compound 1.18, [5-(2-amino-5-(3-methoxybenzoyl)thiazol-4-yl)furan-2-yl]-phosphonic acid]: 85 nM.
Same read-out and setting: then `Cc1ccccc1C(=O)c1sc(N)nc1-c1ccc(P(=O)(O)O)o1` [Compound 1.13, [5-(2-amino-5-(2-methylbenzoyl)thiazol-4-yl)furan-2-yl]-phosphonic acid], with 48 nM; and `Nc1nc(-c2ccc(P(=O)(O)O)o2)c(C(=O)c2ccc3ccccc3c2)s1` [Compound 1.29, [5-(2-amino-5-(2-naphthylcarbonyl)thiazol-4-yl)furan-2-yl]-phosphonic acid], with 60 nM; and `CN(C)c1ccc(C(=O)c2sc(N)nc2-c2ccc(P(=O)(O)O)o2)cc1` [Compound 1.32, [5-(2-amino-5-(4-(N,N-dimethylamino)benzoyl)thiazol-4-yl)-furan-2-yl]phosphonic acid], with 105 nM.
On to `Nc1nc(-c2ccc(P(=O)(O)O)o2)c(C(=O)C2CCCC2)s1` [Compound 1.30, [5-(2-amino-5-cyclopentylcarbonylthiazol-4-yl)furan-2-yl]-phosphonic acid], for which the half-inhibitory concentration (IC50) amounted to 14 nM.
`Nc1ncnc2c1ncn2[C@@H]1O[C@H](COP(=O)(O)O)[C@@H](O)[C@H]1O` [AMP, reference compound]: the half-inhibitory concentration (IC50) came out at 1000 nM.
The same measure, in the same setting: next, `Nc1nc(-c2ccc(P(=O)(O)O)o2)c(C(=O)c2cccc(Cl)c2)s1` [Compound 1.12, [5-(2-amino-5-(3-chlorobenzoyl)thiazol-4-yl)furan-2-yl]-phosphonic acid]: 73 nM; `Nc1nc(-c2ccc(P(=O)(O)O)o2)c(C(=O)c2ccc(-c3ccccc3)cc2)s1` [Compound 1.28, [5-(2-amino-5-(4-phenylbenzoyl)thiazol-4-yl)furan-2-yl]-phosphonic acid]: 57 nM; `Nc1nc(-c2ccc(P(=O)(O)O)o2)c(C(=O)c2ccc(N3CCCC3)c(Cl)c2)s1` [Compound 1.21, [5-(2-amino-5-(3-chloro-4-(1-pyrrolidinyl)benzoyl)-thiazol-4-yl)furan-2-yl]-phosphonic acid]: 54 nM.
On the same count and under the same terms, next, `Nc1nc(-c2ccc(P(=O)(O)O)o2)c(C(=O)c2ccc(Cl)cc2)s1` [Compound 1.9, [5-(2-amino-5-(4-chlorobenzoyl)thiazol-4-yl)furan-2-yl]-phosphonic acid]: 86 nM.

For another test, the system named is Sprague-Dawley rats. Put plainly: Glucose lowering following oral administration to the fasted, normal rat. The test is classed as in vivo. To be noted: maximum lowering relative to saline controls, 10 mg/kg oral, 18-h fasted rats. As to the method:
Compounds were administered by oral gavage to 18-h fasted, Sprague-Dawley rats (250-300 g, n=3/4/group) at a dose of 10 mg/kg. Phosphonic acids (active moieties) were prepared in deionized water, and the solution adjusted to neutrality with sodium hydroxide. Prodrugs were dissolved in polyethylene glycol (mw 400). Blood samples were taken via tail vein nick immediately prior to dosing and at 1 h intervals thereafter. Blood glucose was analyzed by means of a HemoCue glucose analyzer (HemoCue Inc., Mission Viejo, Calif.). The table below indicates the maximum % glucose lowering achieved relative to control animals dosed with saline.
`CCOC(=O)[C@H](C)NP(=O)(N[C@@H](C)C(=O)OCC)c1ccc(-c2nc(N)sc2C(=O)c2cccc(F)c2)o1` [Compound 2.19, 2-amino-5-(3-fluorobenzoyl)-4-{[5-(N,N′-((S)-1-ethyloxy-carbonyl)ethyl)-phosphonamido]furan-2-yl}thiazole] registered an inhibition in vivo at 10 mg/kg of 16%.
The same measure, in the same setting: then `CCOC(=O)C(C)(C)NP(=O)(NC(C)(C)C(=O)OCC)c1ccc(-c2nc(N)sc2C(=O)C2CCC2)o1` [Compound 2.29], with 12%; and `CCOC(=O)COP(=O)(NC(C)(C)C(=O)OCC)c1ccc(-c2nc(N)sc2C(=O)C2CCC2)o1` (stereo not shown) [Compound 5.4], with 16%.

Usually IC50 stands for the midpoint of a concentration-inhibition curve. In general, inhibition in vivo refers to the percentage by which the read-out fell short of the control. Low readings indicate little suppression, high ones strong suppression.
